Source: patent publication US8039496B2, “Therapeutic compounds” (Allergan, Inc., priority 2007, dated 2011)
Like-named read-outs stand apart in the source and are kept apart here.

Key:
[1] = target: T1, hDP (Homo sapiens, UniProt Q13258); experiment: Other receptors: hDP; assay type: cell-based; settings: the 3rd table; read-out: Other Receptors (ED50 in nM) hDP
T1 sequence (Q13258 1-359): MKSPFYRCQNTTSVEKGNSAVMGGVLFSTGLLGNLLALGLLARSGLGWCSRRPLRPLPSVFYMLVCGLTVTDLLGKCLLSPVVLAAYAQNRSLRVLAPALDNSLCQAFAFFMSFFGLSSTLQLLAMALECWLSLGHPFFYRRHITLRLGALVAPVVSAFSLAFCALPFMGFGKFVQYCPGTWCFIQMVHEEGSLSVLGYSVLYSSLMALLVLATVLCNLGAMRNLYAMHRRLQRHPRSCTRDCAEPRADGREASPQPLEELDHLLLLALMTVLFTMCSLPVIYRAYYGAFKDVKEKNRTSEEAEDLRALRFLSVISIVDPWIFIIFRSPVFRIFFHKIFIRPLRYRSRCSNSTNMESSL
Description: (§1) U.S. patent application Ser. No. 11/553,143, filed on Oct. 26, 2006, describes the methods used to obtain the in vitro data in the table below.

[2] = target: T2, hEP2 (Homo sapiens, UniProt P43116); experiment: hEP2 cAMP functional assay; assay type: cell-based; settings: the 3rd table; read-out: EP2 data cAMP EC50
T2 sequence (P43116 whole entry): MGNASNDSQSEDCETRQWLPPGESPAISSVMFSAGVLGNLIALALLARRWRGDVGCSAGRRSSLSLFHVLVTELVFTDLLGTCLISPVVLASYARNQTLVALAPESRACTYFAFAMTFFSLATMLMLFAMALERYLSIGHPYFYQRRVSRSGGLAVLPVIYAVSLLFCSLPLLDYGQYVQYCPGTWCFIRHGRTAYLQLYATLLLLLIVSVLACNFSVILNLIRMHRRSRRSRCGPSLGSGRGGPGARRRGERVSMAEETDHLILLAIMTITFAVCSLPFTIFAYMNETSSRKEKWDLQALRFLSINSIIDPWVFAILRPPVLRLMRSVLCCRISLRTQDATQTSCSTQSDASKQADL
Description: as §1

[3] = target: T2, hEP2; experiment: hEP2 binding (Ki); settings: the 3rd table; read-out: EP2 data Ki
Description: as §1

[4] = target: T3, hEP3 (Homo sapiens, UniProt P43115); experiment: Other receptors: hEP3 / hEP3A; assay type: cell-based
T3 sequence (P43115 1-390): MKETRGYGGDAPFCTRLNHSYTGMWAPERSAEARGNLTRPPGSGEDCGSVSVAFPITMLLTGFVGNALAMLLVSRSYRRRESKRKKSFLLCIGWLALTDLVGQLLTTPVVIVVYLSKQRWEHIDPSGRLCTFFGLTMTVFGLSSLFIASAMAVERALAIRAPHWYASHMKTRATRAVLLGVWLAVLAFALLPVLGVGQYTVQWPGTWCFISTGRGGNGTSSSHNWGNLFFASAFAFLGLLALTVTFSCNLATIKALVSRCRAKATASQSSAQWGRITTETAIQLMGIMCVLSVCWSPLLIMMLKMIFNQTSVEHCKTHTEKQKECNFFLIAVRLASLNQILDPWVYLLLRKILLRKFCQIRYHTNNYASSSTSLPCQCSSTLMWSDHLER
Description: as §1

[5] = target: T2, hEP2; experiment: hEP2 flipr functional assay; assay type: cell-based; settings: the 3rd table; read-out: EP2 data flipr EC50
Description: as §1

[6] = target: T4, hEP4 (Homo sapiens, UniProt P35408); experiment: hEP4 flipr functional assay; assay type: cell-based; settings: the 3rd table; read-out: EP4 data flipr EC50
T4 sequence (P35408 whole entry): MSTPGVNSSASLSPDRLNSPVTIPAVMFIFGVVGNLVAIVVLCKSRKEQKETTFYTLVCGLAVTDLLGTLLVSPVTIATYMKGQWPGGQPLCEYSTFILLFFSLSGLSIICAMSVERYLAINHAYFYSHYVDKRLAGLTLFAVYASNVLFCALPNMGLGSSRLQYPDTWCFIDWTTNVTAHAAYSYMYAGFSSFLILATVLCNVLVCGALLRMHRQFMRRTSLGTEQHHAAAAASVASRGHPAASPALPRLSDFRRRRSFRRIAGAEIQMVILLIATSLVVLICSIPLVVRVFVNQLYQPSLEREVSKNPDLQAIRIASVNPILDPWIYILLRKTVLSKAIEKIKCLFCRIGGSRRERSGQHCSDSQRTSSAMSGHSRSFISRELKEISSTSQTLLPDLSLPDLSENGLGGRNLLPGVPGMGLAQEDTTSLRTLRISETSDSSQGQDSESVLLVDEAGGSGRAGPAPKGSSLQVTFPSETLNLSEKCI
Description: as §1

[7] = target: T4, hEP4; experiment: hEP4 binding (Ki); settings: the 3rd table; read-out: EP4 data KI
Description: as §1

[8] = tested on: normotensive dogs; experiment: Ocular surface hyperemia in normotensive dogs; assay type: in vivo; design: scale not given here; settings: once daily for 5 days
Protocol: (§2) U.S. Pat. No. 7,091,231 describes the methods used for these in vivo tests. 5-{3-[1R,2S,3R,5R)-5-Chloro-2-(3,5-dichloro-phenoxymethyl)-3-hydroxy-cyclopentyl]-propyl}-thiophene-2-carboxylic acid was tested at multiple concentrations in normotensive dogs, dosing once daily for 5 days. At 0.1%, the maximum intraocular pressure (IOP) decrease from baseline was 7.5 mmHg (48%) at 30 h; the maximum ocular surface hyperemia (OSH) score was 2.75 at 26 h. At 0.01%, the maximum IOP decrease from baseline was 7.5 mmHg (43%) at 76 h; the maximum OSH score was 2.0 at 26 h. At 0.005%, the maximum IOP decrease from baseline was 6.6 mmHg (35%) at 78 h; the maximum OSH score was 1.75 at 74 h. This compound was also tested in laser-induced hypertensive monkeys, using one single day dose. At 0.01%, the maximum IOP decrease from baseline was 20.2 mmHg (53%) at 24 h.

[9] = tested on: normotensive dogs; experiment: Intraocular pressure in normotensive dogs; assay type: in vivo; settings: Canis lupus familiaris, topical, 120 h, once daily for 5 days, read-out: maximum IOP decrease from baseline (percent)
Protocol: as §2

[10] = tested on: laser-induced hypertensive monkeys; experiment: Intraocular pressure in laser-induced hypertensive monkeys; assay type: in vivo; settings: one single day dose
Protocol: as §2

[11] = the 3rd table, read-out: Other Receptors (ED50 in nM) hEP3A

Row | EC50 [1] [nM] | EC50 [2] [nM] | Ki [3] [nM] | EC50 [5] [nM] | EC50 [6] [nM] | Ki [7] [nM] | maximum ocular surface hyperemia (OSH) score ([8]; 0.1%) | SMILES | inhibition in vivo at 0.1 % [9] [%] | maximum IOP decrease from baseline ([10]; 0.1%) [mmHg] | maximum IOP decrease from baseline (percent) ([10]; 0.1%) [%] | also measured
1 | 12100 | 0.3 | 3 | 216 | 5290 | 1280 |  | O=C(O)c1ccc(CCC[C@@H]2[C@@H](COc3cc(F)cc(F)c3)[C@H](O)C[C@H]2Cl)s1 [5-(3-((1R,2S,3R,5R)-5-chloro-2-((3,5-difluorophenoxy)methyl)-3-hydroxycyclopentyl)propyl)thiophene-2-carboxylic acid] |  |  |  | EC50 [4, 11]: 4140 nM
2 |  |  |  |  |  |  |  | O=C(O)CCC/C=C\C[C@@H]1[C@@H](COc2cc(Cl)cc(Cl)c2)[C@H](O)C[C@H]1Cl [drawing 43, (Z)-7-[(1R,2S,3R,5R)-5-Chloro-2-(3,5-dichloro-phenoxymethyl)-3-hydroxy-cyclopentyl]-hept-5-enoic acid] |  |  |  | EC50 ([4]; the 2nd table, read-out: Other Receptors hEP3): 1260 nM
3 |  |  |  |  |  |  | 0.9 | O=C(O)CCC/C=C\C[C@@H]1[C@@H](COc2cc(Cl)cc(CO)c2)[C@H](O)C[C@H]1Cl [(Z)-7-[(1R,2S,3R,5R)-5-Chloro-2-(3-chloro-5-hydroxymethyl-phenoxymethyl)-3-hydroxy-cyclopentyl]-hept-5-enoic acid] | 13.5 | 8 | 21 | 
4 |  | 0.2 | 2.4 | 1150 | 12300 | 354 |  | O=C(O)c1ccc(CCC[C@@H]2[C@@H](COc3cc(F)cc(C(F)(F)F)c3)[C@H](O)C[C@H]2Cl)s1 [5-(3-((1R,2S,3R,5R)-5-chloro-2-((3-fluoro-5-(trifluoromethyl)phenoxy)methyl)-3-hydroxycyclopentyl)propyl)thiophene-2-carboxylic acid] |  |  |  | EC50 [4, 11]: 6820 nM
5 |  |  |  |  |  |  | 0.8 | CC(C)OC(=O)CCC/C=C\C[C@@H]1[C@@H](COc2cc(Cl)cc(CO)c2)[C@H](O)C[C@H]1Cl [Example 12, (Z)-Isopropyl 7-((1R,2S,3R,5R)-5-chloro-2-((3-chloro-5-(hydroxymethyl)phenoxy)methyl)-3-hydroxycyclopentyl)hept-5-enoate] | 33 | 7.4 | 21 | 
6 | 7190 | 0.2 | 0.7 | 1490 | > 10000 | 170 |  | Cc1cc(OC[C@@H]2[C@@H](CCCc3ccc(C(=O)O)s3)[C@H](Cl)C[C@H]2O)cc(C)c1Cl [5-(3-((1R,2S,3R,5R)-5-chloro-2-((4-chloro-3,5-dimethylphenoxy)methyl)-3-hydroxycyclopentyl)propyl)thiophene-2-carboxylic acid] |  |  |  | 
7 | 13500 | 2.5 | 10 | 3530 | 15000 | 1930 |  | O=C(O)c1ccc(CCC[C@@H]2[C@@H](COc3ccc(Cl)c4ccccc34)[C@H](O)C[C@H]2Cl)s1 [5-(3-((1R,2S,3R,5R)-5-chloro-2-((4-chloronaphthalen-1-yloxy)methyl)-3-hydroxycyclopentyl)propyl)thiophene-2-carboxylic acid] |  |  |  | 
8 |  |  |  |  |  |  | 2.75 | O=C(O)c1ccc(CCC[C@@H]2[C@@H](COc3cc(Cl)cc(Cl)c3)[C@H](O)C[C@H]2Cl)s1 [Example 4, 5-{3-[(1R,2S,3R,5R)-5-Chloro-2-(3,5-dichloro-phenoxymethyl)-3-hydroxy-cyclopentyl]-propyl}-thiophene-2-carboxylic acid] | 48 |  |  | maximum ocular surface hyperemia (OSH) score ([8]; 0.005%): 1.75; maximum ocular surface hyperemia (OSH) score ([8]; 0.01%): 2.0; inhibition in vivo at 0.005 % ([9]; 0.005%): 35%; inhibition in vivo at 0.01 % ([9]; 0.01%): 43%; maximum IOP decrease from baseline ([10]; 0.01%): 20.2 mmHg; maximum IOP decrease from baseline (percent) ([10]; 0.01%): 53%

Row | SMILES | EC50 [1] [nM] | EC50 [2] [nM] | Ki [3] [nM] | EC50 [5] [nM] | EC50 [6] [nM] | Ki [7] [nM] | maximum ocular surface hyperemia (OSH) score ([8]; 0.1%) | inhibition in vivo at 0.1 % [9] [%] | maximum IOP decrease from baseline ([10]; 0.1%) [mmHg] | maximum IOP decrease from baseline (percent) ([10]; 0.1%) [%] | also measured
9 | CC(=O)OCc1cc(Cl)cc(OC[C@@H]2[C@@H](C/C=C\CCCC(=O)OC(C)C)[C@H](Cl)C[C@H]2O)c1 [Example 13, (Z)-Isopropyl 7-((1R,2S,3R,5R)-2-((3-(acetoxymethyl)-5-chlorophenoxy)methyl)-5-chloro-3-hydroxycyclopentyl)hept-5-enoate] |  |  |  |  |  |  | 0.7 | 20 | 8.2 | 21 | 
